One data set concerns BuChE. The settings on record: cited from earlier work.
For a further data set, the system named is AChE. The note with it: cited from earlier work.
Data set [1] deals with equine serum BuChE (eqBuChE) (Equus caballus, UniProt P81908). Put plainly: biochemical. In kind it is biochemical. The note with it: for IC50: [S] = 112 µM, 0.1 M phosphate buffer pH 8.0, 25 °C, mean ± SD; for Ki: eqBuChE.
For another data set, the system named is Artemia salina. Description: Artemia salina lethal toxicity assay. In kind it is in vivo. The note with it: 24 h. As for the experimental part:
(§1) Artemia salina was used for in vivo general toxicity assessment of the compounds A1–3 and B1–5.
(§2) The ARTOXKIT M protocol was used. The percentage of dyed nauplii of Artemia salina, grown in the presence of variable concentrations of the inhibitor compounds (A1–3 and B1–5) (0.01 to 100 µM).
(§3) Saline water with 1% DMSO was used as a blank.
(§4) In parallel, a K2Cr2O7 test was performed as quality control.

Data set [2] has as its target T1, electrophorus electricus AChE (eeAChE) (Electrophorus electricus, UniProt O42275).
T1 construct: purified enzymes of animal origin, namely electrophorus electricus AChE (eeAChE) and equine serum BuChE (eqBuChE); purchased Sigma–Aldrich; host or cells: electric eel (animal origin)
Description: biochemical. The note with it: [S] = 121 µM; 0.1 M phosphate buffer pH 8.0, 25 °C; mean ± SD. On the procedure: In order to evaluate the inhibitory activity against cholinesterase enzymes (AChE and BuChE), well-established in vitro models were used—purified enzymes of animal origin, namely electrophorus electricus AChE (eeAChE) and equine serum BuChE (eqBuChE). Hybrids A1–3 and B1–5 (Figure 3) were evaluated in vitro for cholinesterase inhibition using Ellman’s colorimetric method. […] The values are expressed as the mean ± standard deviation (SD).
The enzymatic activity of electrophorus electricus AChE (eeAChE) and equine serum BuChE (eqBuCHE) was assessed using the Ellman colorimetric assay, with minor modifications. […] Enzyme kinetics were monitored using UV-Vis spectroscopy using 0.875 mM 5,5′-dithiobis(2-nitrobenzoic acid) (DTNB) (Ellman’s reagent) as a chromogenic agent.
For this purpose, GraphPad Prism 8.02 software was used to plot %I vs. [I] (5 different concentrations) via a non-linear regression.

The next data set in a line: FRAP antioxidant assay. The settings on record: for Antioxidant capacity, FRAP method: 6–200 µM; for Trolox Equivalent Antioxidant Capacity (TEAC), FRAP method: at 200 μM, compared to Trolox.
Data set [3] deals with eqBuChE. The settings on record: cited from earlier work.
The target of data set [4] is T2, eqBuChE (Equus caballus, UniProt P81908).
T2 construct: purified enzymes of animal origin, namely electrophorus electricus AChE (eeAChE) and equine serum BuChE (eqBuChE); purchased Sigma–Aldrich; host or cells: equine serum
T2 sequence (P81908 whole entry): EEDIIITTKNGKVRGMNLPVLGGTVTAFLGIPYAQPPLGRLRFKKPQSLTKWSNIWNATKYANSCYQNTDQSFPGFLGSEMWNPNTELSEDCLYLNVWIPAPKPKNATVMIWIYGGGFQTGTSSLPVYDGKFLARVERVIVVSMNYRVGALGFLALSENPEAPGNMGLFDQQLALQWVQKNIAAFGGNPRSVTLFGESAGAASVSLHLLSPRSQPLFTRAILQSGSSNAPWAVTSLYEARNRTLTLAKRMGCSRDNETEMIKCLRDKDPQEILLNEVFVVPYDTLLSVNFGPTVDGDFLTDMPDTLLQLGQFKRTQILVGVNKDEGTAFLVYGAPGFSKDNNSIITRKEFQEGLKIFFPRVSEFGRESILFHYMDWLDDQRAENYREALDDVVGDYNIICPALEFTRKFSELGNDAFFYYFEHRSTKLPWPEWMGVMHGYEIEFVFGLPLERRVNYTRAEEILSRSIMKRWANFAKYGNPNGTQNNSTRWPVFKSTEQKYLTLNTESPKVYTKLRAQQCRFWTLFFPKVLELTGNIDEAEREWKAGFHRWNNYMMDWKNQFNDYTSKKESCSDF
Put plainly: STD-NMR study with eqBuChE. In kind it is binding, equine. The settings on record: hybrid 2.5 mM, eqBuChE 2.5 μM. As for the experimental part: STD-NMR is a very useful validation technique for docking studies, which we have used previously with success.
The NMR spectroscopy experiments were performed on a Bruker Avance III 400 MHz spectrometer equipped with a 5 mm broadband (PABBO BB/19F-1H/D Z-GRD) resonance probe head. The STD-NMR experiments were realized according to our established method. Basically, NMR and STD-NMR experiments were carried out with solvent suppression and a 10 ms spinlock filter after the 90◦ pulse to reduce residual signals from the protein. For selective saturation, cascades of Gaussian pulses with a length of 50 ms and 40–60 dB of attenuation were employed, with an interpulse delay of 1 ms. The on-resonance and off-resonance frequencies were set to 0 and 12,000 Hz, respectively. STD-NMR controls were performed using the ligand itself. Blank experiments were performed to guarantee the absence of direct saturation of the ligand proton signals. The relaxation delay was properly adjusted so that the experiment time length was kept constant at 6.5 s. Water suppression at 1880 Hz (4.7 ppm) was conducted. Specifically, the saturation time to obtain the STD buildup curves was recorded at 0.25, 0.5, 1, 2, 3, 4, and 5 s. A 5 μM eqBuChE solution was prepared in a D2O. Five mM stock solutions were prepared for hybrids A1 and B4. […]. The final concentrations of ligand and enzyme were […], respectively.

The nature of data set [5]: Artemia salina lethal toxicity assay. The settings on record: in vivo. In kind it is in vivo. On the procedure:
as §1, §2, §3, §4

Where two headings read alike, the source gives them in different places. A value given as a limit tells only on which side of the number the result lay.

Usually IC50 stands for the midpoint of a concentration-inhibition curve. The term LC50 denotes the concentration lethal to half of the exposed cells or organisms.

T1 sequence (O42275 24-633): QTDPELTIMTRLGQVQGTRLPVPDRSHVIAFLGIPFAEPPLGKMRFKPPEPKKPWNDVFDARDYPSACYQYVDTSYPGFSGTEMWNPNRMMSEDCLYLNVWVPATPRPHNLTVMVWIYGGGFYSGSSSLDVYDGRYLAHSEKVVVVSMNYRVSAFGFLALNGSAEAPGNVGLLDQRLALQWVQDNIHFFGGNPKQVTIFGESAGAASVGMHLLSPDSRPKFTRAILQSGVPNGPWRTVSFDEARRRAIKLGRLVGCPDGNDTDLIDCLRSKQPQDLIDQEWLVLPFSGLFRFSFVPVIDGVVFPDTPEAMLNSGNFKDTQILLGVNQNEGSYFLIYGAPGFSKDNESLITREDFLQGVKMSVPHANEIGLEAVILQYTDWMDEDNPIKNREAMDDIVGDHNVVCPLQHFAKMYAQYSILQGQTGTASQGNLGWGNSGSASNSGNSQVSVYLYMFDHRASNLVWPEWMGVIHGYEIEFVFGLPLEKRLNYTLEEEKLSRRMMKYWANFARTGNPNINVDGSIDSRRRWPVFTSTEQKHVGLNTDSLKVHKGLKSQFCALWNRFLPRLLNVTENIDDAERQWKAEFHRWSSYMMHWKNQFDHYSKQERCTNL
Chain of equine serum BuChE (eqBuChE) (P81908 whole entry): as the sequence (P81908 whole entry) above

On to `O=c1ccc2ccc(OCCCCCn3cc(CNc4c5c(nc6ccccc46)CCCC5)nn3)cc2o1` [II], for which the values for the IC50 with BuChE and with AChE were 0.006 µM and 0.095 µM, respectively.

Take `COc1ccc(C2NC(=O)NC(CCc3ccc(O)cc3)=C2C(=O)CCc2ccc(O)cc2)cc1` (centres unmarked) [V]: in the data set with AChE, the half-maximal inhibitory concentration (IC50) is 1.34 µM.

For the molecule `CC1=C(n2cc(-c3ccccc3)nn2)C(c2ccc(Cl)cc2)NC(=O)N1` (centres unmarked) [Hybrid A2, 4-(4-Chlorophenyl)-6-methyl-5-(4-phenyl-1,2,3-triazol-1-yl)-3,4-dihydropyrimidin-2-one], the values for the IC50 in [1] and in data set [2] were 24 ± 1 µM and greater than 100 µM, respectively. The “NOEC (No Observed Effect Concentration)” value in the data set on Artemia salina came out at 200 µM.

For the molecule `O=C1NC(Cn2cc(C3CC3)nn2)=C(n2cc(-c3ccccc3)nn2)C(c2ccccc2)N1` (centres unmarked) [Hybrid B3, 6-((4-Cyclopropyl-1H-1,2,3-triazol-1-yl)methyl)-4-phenyl-5-(4-phenyl-1,2,3-triazol-1-yl)-3,4-dihydropyrimidin-2-one], the IC50 is 58 ± 3 µM in data set [1] and greater than 100 µM in [2]. Further, in “FRAP antioxidant assay”, the “Antioxidant capacity, FRAP method” value is given as “some potential to reduce Fe(III) to Fe(II)”. The “Trolox Equivalent Antioxidant Capacity (TEAC), FRAP method” value in the data set “FRAP antioxidant assay” is 0.257. Further, in the data set with Artemia salina, the “NOEC (No Observed Effect Concentration)” value was 200 µM.

For `COc1cc(OC)c2c(=O)c(OCCCCn3cc(CN4C(=O)C(=O)c5ccccc54)nn3)c(-c3ccc(OC)c(OC)c3)oc2c1` [IV], the concentration for half-maximal inhibition (IC50) in the data set with eqBuChE [3] is 11.2 µM.

Regarding `[K+].[K+].[O]=[Cr](=[O])([O-])[O][Cr](=[O])(=[O])[O-]` [Hybrid K2Cr2O7, K2Cr2O7, reference compound], in the data set with Artemia salina (reference test), the LC50 is 23.6 µg/mL, the “LOEC (Lowest Observed Effect Concentration)” value stood at 18 mg/L and the “NOEC (No Observed Effect Concentration)” value was determined as 10 mg/L.

Consider `O=C1NC(Cn2cc(CN3C(=O)C(=O)c4ccccc43)nn2)=C(n2cc(-c3ccccc3)nn2)C(c2ccccc2)N1` (centres unmarked) [Hybrid B4, 1-((1-((2-Oxo-6-phenyl-5-(4-phenyl-1,2,3-triazol-1-yl)-1,2,3,6-tetrahydropyrimidin-4-yl)methyl)-1,2,3-triazol-4-yl)methyl)indoline-2,3-dione], for which the IC50 was 1 ± 0.1 µM in data set [1] and greater than 100 µM in data set [2]. For the same molecule, the Ki was 1.4 µM in data set [1] (inhibition constant for binding to the enzyme-substrate complex, read-out: Kib (converted)) and 1.1 µM in data set [1] (inhibition constant for binding to the free enzyme, read-out: Kia (converted)). Further, the “Type of inhibition of eqBuChE” value in [1] (methods of Dixon and Cornish-Bowden) was “mixed mode of inhibition”. Moreover, the “Antioxidant capacity, FRAP method” value in “FRAP antioxidant assay” was “null values”. Further, on eqBuChE [4] (4 s saturation, H16 set to 100%), the “STD-NMR attenuation, H11 and H13 of the CH2 groups” value is recorded as 33%. The “NOEC (No Observed Effect Concentration)” value in the data set on Artemia salina was found to be 200 µM.

For `CCOC(=O)C1=C(C[Se]C(=O)c2ccc(C)cc2)NC(=O)NC1c1ccccc1` (centres unmarked) [VI], in the data set with AChE, the half-maximal inhibitory concentration (IC50) was 7.21 µM.

For the molecule `O=C1NC(Cn2cc(-c3ccccc3)nn2)=C(n2cc(-c3ccccc3)nn2)C(c2ccc(OCc3ccccc3)cc2)N1` (centres unmarked) [Hybrid B5, 4-(4-(Benzyloxy)phenyl)-5-(4-phenyl-1,2,3-triazol-1-yl)-6-((4-phenyl-1,2,3-triazol-1-yl)methyl)-3,4-dihydropyrimidin-2-one], the IC50 in data set [1] was greater than 100 µM. In addition, in the data set “FRAP antioxidant assay”, the “Antioxidant capacity, FRAP method” value is given as “some potential to reduce Fe(III) to Fe(II)” and the “Trolox Equivalent Antioxidant Capacity (TEAC), FRAP method” value stood at 0.216. Further, the “NOEC (No Observed Effect Concentration)” value in the data set with Artemia salina came to 200 µM. The same molecule returned an IC50 in data set [2] greater than 100 µM.

Take `O=C1NC(Cn2cc(-c3ccccc3)nn2)=C(n2cc(-c3ccccc3)nn2)C(c2ccccc2)N1` (centres unmarked) [Hybrid B1, 4-Phenyl-5-(4-phenyl-1,2,3-triazol-1-yl)-6-((4-phenyl-1,2,3-triazol-1-yl)methyl)-3,4-dihydropyrimidin-2-one]: the IC50 in data set [1] is 53 ± 4 µM; in data set [2], greater than 100 µM. In “FRAP antioxidant assay”, the “Antioxidant capacity, FRAP method” value is recorded as “null values”. Moreover, in the data set with Artemia salina, the “NOEC (No Observed Effect Concentration)” value stood at 200 µM. This molecule also returned a median lethal concentration (LC50) at 24 h in [5] greater than 200 µM.

On to `CC1=C(n2cc(-c3ccccc3)nn2)C(c2ccc(OCc3ccccc3)cc2)NC(=O)N1` (centres unmarked) [Hybrid A3, 4-(4-(Benzyloxy)phenyl)-6-methyl-5-(4-phenyl-1,2,3-triazol-1-yl)-3,4-dihydropyrimidin-2-one], for which the IC50 in data set [1] and in [2] was greater than 100 µM in each case. In addition, the “NOEC (No Observed Effect Concentration)” value in the data set on Artemia salina was 200 µM.

Turning to `CC(C)[C@@H]1CC[C@@H](C)C[C@@H]1n1cc(CN2C(=O)C(=O)c3ccccc32)nn1` [III], in the data set with eqBuChE [3], the IC50 is 0.46 µM.

The molecule `CC1=C(n2cc(-c3ccccc3)nn2)C(c2ccccc2)NC(=O)N1` (centres unmarked) [Hybrid A1, 6-Methyl-4-phenyl-5-(4-phenyl-1,2,3-triazol-1-yl)-3,4-dihydropyrimidin-2-one] returned an IC50 in data set [1] of 12 ± 2 µM. Also, at eqBuChE [4] (3 s saturation, H9 set to 100%), the “STD-NMR attenuation, H3” value came to 87% and the “STD-NMR attenuation, H7” value was 88%. In addition, the “NOEC (No Observed Effect Concentration)” value in the data set with Artemia salina was found to be 200 µM. The IC50 in [2] was greater than 100 µM.

Turning to `CC(=O)c1ccc(OCc2cccc(C(F)(F)F)c2)cc1OCc1cn(CCc2c[nH]c3ccccc23)nn1` [I], the IC50 in the data set on BuChE is 0.00013 µM.

Turning to `O=C1NC(Cn2cc(-c3ccc(Br)cc3)nn2)=C(n2cc(-c3ccccc3)nn2)C(c2ccccc2)N1` (centres unmarked) [Hybrid B2, 6-((4-(4-Bromophenyl)-1,2,3-triazol-1-yl)methyl)-4-phenyl-5-(4-phenyl-1,2,3-triazol-1-yl)-3,4-dihydropyrimidin-2-one], the IC50 in [1] and in [2] was greater than 100 µM each time. Besides, the “Antioxidant capacity, FRAP method” value in “FRAP antioxidant assay” is on record as “null values”. For the same molecule, the “LOEC (Lowest Observed Effect Concentration)” value with Artemia salina was 100 µM. Also, the “NOEC (No Observed Effect Concentration)” value in the data set on Artemia salina is 1 µM. In addition, in data set [5], the LC50 at 24 h was greater than 200 µM.
